Test results taken from US6992068B2 (Gifu Shellac Mfg., Co., Ltd., priority 2000, dated 2006).

How the values were obtained:
[1] = tested on: collagen induction arthritis model; test: Experiment 2: collagen induction arthritis model, arthritis index; type: in vivo, mice; settings: purified periandrins in the model of Experiment 2
Protocol: Clinical symptoms of arthritis of mice in the respective groups were evaluated by one and the same observer using 6 rankings from zero to five (the larger the value is, the worse the symptom is), and the averages per the respective groups were calculated. These evaluations were performed in 0, 3rd, 4th, 5th, 6th, 7th and 8th week after the first immunity The results were shown in FIG. 3 and Table 3.

[2] = tested on: liver function; test: Experiment 6: protecting and promoting liver function by purified periandrins, same manner as Experiment 1; type: in vivo, rats; settings: 0.1-3 mg/Kg of body weight per injection
Protocol: (§1) In this case, however, the number of groups of rats were made six, one of which includes the rats to which PD-I was injected, another of which includes the rats to which PD-II was injected, another of which includes the rats to which PD-III was injected, another of which includes the rats to which PD-IV was injected, another of which includes the rats to which prednisolone acetate was injected, and another of which includes the rats to which a solvent without any drugs was injected.
(§2) The dose per one injection of PD-I, PD-II, PD-III and PD-IV was 0.1-3 mg/Kg of body weight.
(§3) The dose per one injection of prednisolone acetate was 5 mg/Kg of body weight.

[3] = tested on: cytokine production; test: Experiment 6: inhibition of cytokine production by purified periandrins, same manner as Experiment 1; type: in vivo, rats; settings: 0.1-3 mg/Kg of body weight per injection
Protocol: as §1, §2, §3

[4] = molecular target: T1, 11 β-hydroxysteroid dehydrogenase (Rattus norvegicus, UniProt P16232); test: Experiment 5: inhibition of 11 β-hydroxysteroid dehydrogenase activity (rat liver microsome, cortisone by HPLC); type: biochemical; settings: for inhibitory activity relative to glycirrhizin: from IC50 values; for IC50: rat liver microsome, substrate hydrocortisone, NADP 1 mM, pH 8.0, read-out: IC50 (concentration in which 50 percent of enzyme activity is inhibited)
T1 construct: Fresh rat liver was ice-cooled and homogenized in 0.25 M sucrose solution; from tissue; host or cells: rat liver microsome fraction
T1 sequence (P16232 whole entry): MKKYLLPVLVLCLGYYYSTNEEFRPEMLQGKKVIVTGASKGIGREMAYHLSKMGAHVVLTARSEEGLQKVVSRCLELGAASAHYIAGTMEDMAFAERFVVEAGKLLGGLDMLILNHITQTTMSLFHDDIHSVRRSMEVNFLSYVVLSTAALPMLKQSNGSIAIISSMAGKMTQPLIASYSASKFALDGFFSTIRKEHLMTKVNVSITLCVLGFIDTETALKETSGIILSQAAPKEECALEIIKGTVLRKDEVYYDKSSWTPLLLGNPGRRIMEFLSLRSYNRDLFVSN
Protocol: In order to evaluate the effect of inhibiting 11 β-hydeoxysteroid dehydrogenase activity by the purified periandrins (PD-I, PD-II, PD-III, PD-IV) obtained in Example 4 or 5, IC 50 values (concentration in which the 50 percent of activity of the above enzyme is inhibited) of the purified periandrins were measured by the following steps I-VI.
I. An enzymatic solution containing rat liver microsome as a preparation of 11 β-hydroxysteroid dehydrogenase was prepared as below.
Fresh rat liver was ice-cooled and homogenized in 0.25 M sucrose solution. Then, at the temperature of 4° C., it was centrifuged for 20 minutes at 10,000×g.
After separating cell organelles of the nucleus, mitochondria and lysosome as deposits, the supernatant layer was further centrifuged at 105,000×g for 60 minutes at the temperature of 4° C. to obtain a microsome fraction as a precipitate.
The obtained microsome fraction was suspended by 0.25 M sucrose solution to produce an enzymatic solution, and the obtained solution was stored at the temperature of −20 degrees till the time of measurement of enzyme activity.
1 mM of NADP (product of Oriental Yeast Co., Ltd,) as a coenzyme and an amount of PD-I having a predetermined concentration (ranging from 2 to 1480 μM) as an inhibitor were added to 0.8 ml of Tris-HCI buffer solution having the concentration of 100 mM (PH8.0).
0.2 ml of the enzymatic solution prepared in step I was added to the obtained solution, and after three minutes of preincubation at 37° C., 0.02 ml of 5 mM hydrocortisone solution which was dissolved in methanol was added to start a reaction between 11 β-hydroxysteroid dehydrogenase and PD-I. The reaction was continued for 30 minutes at the temperature of 30° C., and then it was stopped by adding 0.5 ml of ethyl acetate.
This solution was centrifuged and an ethyl acetate layer was separated into an Eppendorf tube. In the mean time, cortisone and substrate hydrocortisone generated by the reaction between 11 β-hydroxysteroid dehydrogenase and substrate hydrocortisone are transferred to the ethyl acetate layer.
Furthermore, the water phase after the centrifuge was again centrifuged in the same manner as above by adding 0.5 ml of ethyl acetate to separate an ethyl acetate layer. This process was repeated two more times.
The ethyl acetate layers obtained by three time extraction were put together into an Eppendorf tube and dried using a centrifugal evaporator.
To prepare a measurement sample, 0.2 ml of methanol was added into the Eppendorf tube in which the ethyl acetate layers were dried in step II, and then the tube was left for a night so that cortisone was completely dissolved. Cortisone was determined using HPLC.
Particularly, quantity of cortisone contained in the sample was calculated from a ratio of a peak area corresponding to cortisone when the measurement sample was introduced to HPLC to a peak area when 5 μl of standard solution (0.1 mg/ml of cortisone-methanol solution) was introduced.
The measurement conditions of HPLC were as follows.
IV. Relative activity (ratio of activity remained after reaction with an inhibitor to the initial activity) of 11 β-hydroxysteroid dehydrogenase was calculated from the quantity of cortisone in accordance with the following equation. Relative activity=((CI−CBL)/(CT−CBL))×100(%) • where • CT: cortisone quantity generated when no inhibitor is added; • CI: cortisone quantity generated when an inhibitor exists; and • CBL: cortisone quantity when enzyme is not added.
V. Measurement of relative activity when PD-II, PD-III, PD-IV, and glycirrhizin were added as an inhibitor instead of PD-I was performed in the same manner as in steps I-IV.
The concentration of the inhibitor PD-I, PD-II, PD-III or PD-IV in the measurement of relative activity is a predetermined value ranging from 2 to 1480 μM. The concentration of glycirrhizin is a predetermined value ranging from 0.2 to 445 μM. […]

[5] = tested on: autoimmune encephalomyelitis model; test: Experiment 3: autoimmune encephalomyelitis model, clinical score; type: in vivo, rats; settings: purified periandrins in the model of Experiment 3

| Compound | symptoms of arthritis [1] | effect of protecting and promoting liver function [2] | effect of inhibiting cytokine production [3] | inhibitory activity relative to glycirrhizin [4] | IC50 [4] | symptoms of encephalomyelitis [5] |
| --- | --- | --- | --- | --- | --- | --- |
| CC1(C)[C@@H](O[C@@H]2O[C@H](C(=O)O)[C@@H](O)[C@H](O)[C@H]2O[C@@H]2O[C@H](C(=O)O)[C@@H](O)[C@H](O)[C@H]2O)CC[C@]2(C=O)[C@H]3CC[C@@H]4C5=C[C@@](C)(C(=O)O)CC[C@]5(C)CC[C@@]4(C)[C@]3(C)CC[C@@H]12 [PD-I, periandrin I] | eased the symptoms of arthritis | protecting and promoting liver function | show the effects of inhibiting cytokine production | about one fifth to one twentieth of glycirrhizin | 214 µM | eased the symptoms of arthritis and encephalomyelitis |
| CC1(C(=O)O)C=C2C3CCC4C5(CO)CCC(OC6OC(C(=O)O)C(O)C(O)C6OC6OC(C(=O)O)C(O)C(O)C6O)C(C)(C)C5CCC4(C)C3(C)CCC2(C)CC1 (stereo not shown) [PD-III, periandrin III] | eased the symptoms of arthritis | protecting and promoting liver function | show the effects of inhibiting cytokine production | about one fifth to one twentieth of glycirrhizin | 581 µM | eased the symptoms of arthritis and encephalomyelitis |
| CC1(C)[C@@H](O[C@H]2O[C@H](C(=O)O)[C@@H](O)[C@H](O)[C@H]2O[C@@H]2O[C@H](C(=O)O)[C@@H](O)[C@H](O)[C@H]2O)CC[C@]2(C)[C@H]3C(=O)C=C4[C@@H]5C[C@@](C)(C(=O)O)CC[C@]5(C)CC[C@@]4(C)[C@]3(C)CC[C@@H]12 [glycirrhizin, reference compound] | – | – | – | – | 26.2 µM | – |
| periandrin II [PD-II] | eased the symptoms of arthritis | protecting and promoting liver function | show the effects of inhibiting cytokine production | about one fifth to one twentieth of glycirrhizin | 150 µM | eased the symptoms of arthritis and encephalomyelitis |
| periandrin IV [PD-IV] | eased the symptoms of arthritis | protecting and promoting liver function | show the effects of inhibiting cytokine production | about one fifth to one twentieth of glycirrhizin | 240 µM | eased the symptoms of arthritis and encephalomyelitis |
